The values below come from US20070015723A1, “Antiviral oligonucleotides having a conserved G4 core sequence” (priority 1992, published 2007).

Values joined by “and” are separate entries in the source; they are usually repeats but may differ in a detail not shown here. Equal values may be shown once. Strand notation (5' to 3'): a small letter for the sugar, then the base; units joined by * are phosphorothioate-linked, units joined directly phosphodiester-linked; [ ] holds rarer units or linkages, { } end groups; capitals alone tell only the bases. {Fluor} = fluorescein moiety via fluorescein-labeled amidite; d = 2'-deoxy (DNA)

For one data set, the target named is T1, human type II phospholipase A2 (Homo sapiens, UniProt P14555).
T1 sequence (P14555 21-144): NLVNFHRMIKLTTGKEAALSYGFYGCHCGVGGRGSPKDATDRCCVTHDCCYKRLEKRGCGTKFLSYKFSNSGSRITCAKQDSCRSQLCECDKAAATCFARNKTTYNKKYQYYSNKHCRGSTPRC
In words: Human type II phospholipase A2 enzyme assay (3H-oleic acid labelled E. coli substrate). Format: biochemical.
Details: not given
With “ISIS 3631: AGGTCGAGGAGTGGTCTGAGC, phosphorothioate, SEQ ID NO 81 (dA*dG*dG*dT*dC*dG*dA*dG*dG*dA*dG*dT*dG*dG*dT*dC*dT*dG*dA*dG*dC)”, the “I.C.50 relative to ISIS 3196 (fold higher)” value is reported as “approximately 10 fold”.

Still in this data set, the particulars now being: 1 μM; Table 4.
As to “ISIS 3631: AGGTCGAGGAGTGGTCTGAGC, phosphorothioate, SEQ ID NO 81 (dA*dG*dG*dT*dC*dG*dA*dG*dG*dA*dG*dT*dG*dG*dT*dC*dT*dG*dA*dG*dC)”, the “% Inhibition (1 μM)” value was determined as 20.7%.

Turning to “ISIS 3630: TCTCATACCCTCCCTCCCTAC, phosphorothioate, SEQ ID NO 80 (dT*dC*dT*dC*dA*dT*dA*dC*dC*dC*dT*dC*dC*dC*dT*dC*dC*dC*dT*dA*dC)”, the “% Inhibition (1 μM)” value was 17.6%.

Regarding “ISIS 3633: GTAGGGATGGGAGTGAAGGAG, phosphorothioate, SEQ ID NO 83 (dG*dT*dA*dG*dG*dG*dA*dT*dG*dG*dG*dA*dG*dT*dG*dA*dA*dG*dG*dA*dG)”, the “% Inhibition (1 μM)” value turned out to be 58.5%.

In the case of “ISIS 3192: GGAAGGTTTCGAGQGAAGAGG, phosphorothioate, SEQ ID NO 63”, the “% Inhibition (1 μM)” value is 28.1%.

For the substance “ISIS 3632: CCAGGAGAGGTCGGTAAGGCG, phosphorothioate, SEQ ID NO 82 (dC*dC*dA*dG*dG*dA*dG*dA*dG*dG*dT*dC*dG*dG*dT*dA*dA*dG*dG*dC*dG)”, the “% Inhibition (1 μM)” value was determined as 29.2%.

Regarding “ISIS 3472: TGGGTGAGGGATGCTTTCTGC, phosphorothioate, SEQ ID NO 68 (dT*dG*dG*dG*dT*dG*dA*dG*dG*dG*dA*dT*dG*dC*dT*dT*dT*dC*dT*dG*dC)”, the “% Inhibition (1 μM)” value amounted to 69.0%.

As for “ISIS 3659: TGCTCCTCCTTGGTGGCTCTC, phosphorothioate, SEQ ID NO 84 (dT*dG*dC*dT*dC*dC*dT*dC*dC*dT*dT*dG*dG*dT*dG*dG*dC*dT*dC*dT*dC)”, the “% Inhibition (1 μM)” value came to 38.2%.

The same data set, now with this note: 1 μM; Table 5, two separate experiments.
In the case of “GGG TGG GTA TAG AAG: truncated version of ISIS 3196, SEQ ID NO 98 (dG*dG*dG*dT*dG*dG*dG*dT*dA*dT*dA*dG*dA*dA*dG)”, the “% Inhibition (1 μM)” value came out at 82.5%.

For the next data set, the system named is HSV-1 (KOS). In words: HSV-1 infection ELISA assay. Format: cell-based. Conditions: 50% inhibition of HSV replication relative to control infected cells; Table 1. In general terms: In an ELISA, binding on a coated surface is turned into a signal by an enzyme label.
As usually defined, the EC50 is the midpoint of the concentration-response curve. Low readings indicate an effect from little substance, high ones a need for much substance. In the case of “ISIS 5356: CGG GGT TGG GG, P = S, SEQ ID NO 25 (CGGGGTTGGGG; all phosphorothioate, sugars by position and methylation of C not given here)”, it took 700 nM to reach a half-maximal effect (EC50).

Regarding “ISIS 4882: CAT GGC GGG ACT ACG, P = S, SEQ ID NO 9 (CATGGCGGGACTACG; all phosphorothioate, sugars by position and methylation of C not given here)”, the EC50 was 1700 nM and 1400 nM.

Substance “ISIS 4889: AGG GGA ATC CGT CAT, P = S, SEQ ID NO 14 (AGGGGAATCCGTCAT; all phosphorothioate, sugars by position and methylation of C not given here)” registered an EC50 of 2000 nM.

As to “ISIS 5302: CAC GAA AGG CAT GAC, P = S, SEQ ID NO 7 (CACGAAAGGCATGAC; all phosphorothioate, sugars by position and methylation of C not given here)”, the EC50 was greater than 3000 nM.

“ISIS 4694: TA G AAG GGC TCC, P = S, SEQ ID NO 53 (TAGAAGGGCTCC; all phosphorothioate, sugars by position and methylation of C not given here)” displayed an EC50 greater than 3000 nM.

On to “ISIS 4895: CGC CGA TGC GGG GCG, P = S, SEQ ID NO 19 (CGCCGATGCGGGGCG; all phosphorothioate, sugars by position and methylation of C not given here)”, for which a half-maximal response (EC50) required 550 nM.

“ISIS 4664: GGG T GGG T ATA G AAG G GC, P = S, SEQ ID NO 48 (GGGTGGGTATAGAAGGGC; all phosphorothioate, sugars by position and methylation of C not given here)”: the EC50 amounted to 200 nM.

Regarding “ISIS 5365: GA GAC CGG GGT TGG GG, P = S, SEQ ID NO 23 (GAGACCGGGGTTGGGG; all phosphorothioate, sugars by position and methylation of C not given here)”, the EC50 was found to be 470 nM.

In turn, “ISIS 4693: G T ATA G AAG GGC TCC, P = S, SEQ ID NO 52 (GTATAGAAGGGCTCC; all phosphorothioate, sugars by position and methylation of C not given here)” had an EC50 greater than 3000 nM.

Consider “ISIS 4872: GGC GGG ACT ACG GGG, P = S, SEQ ID NO 11 (GGCGGGACTACGGGG; all phosphorothioate, sugars by position and methylation of C not given here)”, for which the EC50 was 1900 nM and 1700 nM.

In the case of “ISIS 4874: AGG CAT GAC CGG GGC, P = S, SEQ ID NO 3 (AGGCATGACCGGGGC; all phosphorothioate, sugars by position and methylation of C not given here)”, the EC50 was 1100 nM and 830 nM.

In the case of “ISIS 4692: T GGG T ATA G AAG GGC TCC, P = S, SEQ ID NO 51 (TGGGTATAGAAGGGCTCC; all phosphorothioate, sugars by position and methylation of C not given here)”, the response was half-maximal at 1500 nM (EC50).

In the case of “ISIS 4885: A GAC CGG GGT TGG GG, P = S, SEQ ID NO 24 (AGACCGGGGTTGGGG; all phosphorothioate, sugars by position and methylation of C not given here)”, the EC50 is 420 nM and 510 nM.

Take “ISIS 4896: GC CGA TGC GGG G, P = S, SEQ ID NO 20 (GCCGATGCGGGG; all phosphorothioate, sugars by position and methylation of C not given here)”: the midpoint of the response, the EC50, lay at 1200 nM.

Turning to “ISIS 4894: CAT CGC CGA TCG GGG, P = S, SEQ ID NO 18 (CATCGCCGATCGGGG; all phosphorothioate, sugars by position and methylation of C not given here)”, the EC50 is greater than 3000 nM.

In turn, “ISIS 4671: GGG T GGG T ATA GAA G, P = S, SEQ ID NO 49 (GGGTGGGTATAGAAG; all phosphorothioate, sugars by position not given here)” showed an EC50 of 400 nM.

The same data set, now with this note: HSV-1 (KOS strain); Table 9; some in duplicate.
With “ISIS 4346: GAGGTGGGCTTCGGTGGTGA, phosphorothioate, SEQ ID NO 123 (GAGGTGGGCTTCGGTGGTGA; antisense; all phosphorothioate, sugars by position and methylation of C not given here)”, it took 500 nM to reach a half-maximal effect (EC50). In other words, the sub-micromolar range.

The substance “ISIS 4435: GGGGAGACCGAAACCGCAAA, phosphorothioate, SEQ ID NO 130 (GGGGAGACCGAAACCGCAAA; antisense; all phosphorothioate, sugars by position and methylation of C not given here)” showed an EC50 of 220 nM.

Consider “ISIS 4112: GACTGGGGCGAGGTAGGGGT, phosphorothioate, SEQ ID NO 132 (GACTGGGGCGAGGTAGGGGT; antisense; all phosphorothioate, sugars by position and methylation of C not given here)”, for which the EC50 worked out at 300 nM.

“ISIS 4349: GGTTGGAGACCGGGGTTGGG, phosphorothioate, SEQ ID NO 126 (GGTTGGAGACCGGGGTTGGG; antisense; all phosphorothioate, sugars by position and methylation of C not given here)” came in with an EC50 of 250 nM. The EC50 values of the last two substances are within 1.5-fold of each other.

As for “ISIS 4399: GTCCCGACTGGGGCGAGGAT, phosphorothioate, SEQ ID NO 133 (GTCCCGACTGGGGCGAGGAT; antisense; all phosphorothioate, sugars by position and methylation of C not given here)”, the EC50 worked out at 250 nM.

“ISIS 4341: TGGAGACCGGGGTTGGGGAA, phosphorothioate, SEQ ID NO 127 (TGGAGACCGGGGTTGGGGAA; antisense; all phosphorothioate, sugars by position and methylation of C not given here)”: it took 200 nM to reach a half-maximal effect (EC50).

Consider “ISIS 4393: GGGGTTGGGGAATGAATCCC, phosphorothioate, SEQ ID NO 124 (GGGGTTGGGGAATGAATCCC; antisense; all phosphorothioate, sugars by position and methylation of C not given here)”, for which a half-maximal effect (EC50) was put at 200 nM.

“ISIS 4111: CCTGGATGATGCTGGGGTAC, phosphorothioate, SEQ ID NO 131 (CCTGGATGATGCTGGGGTAC; antisense; all phosphorothioate, sugars by position and methylation of C not given here)” gave an EC50 of 600 nM.

“ISIS 4348: GGGTTGGAGACCGGGGTTGG, phosphorothioate, SEQ ID NO 125 (GGGTTGGAGACCGGGGTTGG; all phosphorothioate, sugars by position and methylation of C not given here)” came in with an EC50 of 400 nM.

Staying with this data set, now noted: Table 12, inosine-substituted.
Regarding “ISIS 5295: GTT GGA GAC CGG GIT TGG GG, Inosine #14, SEQ ID NO 138 (GTT GGA GAC CGG GITTGG GG; inosine at 14, as printed in the source, key not given here)”, the EC50 is greater than 3000 nM.

“ISIS 5296: GTT GGA GAC CGG GGT TGG IG, Inosine #19, SEQ ID NO 139 (GTT GGA GAC CGG GGTTGG IG; inosine at 19, as printed in the source, key not given here)” registered an EC50 of 800 nM.

The same data set, now with this note: Table 13, fluorescein-conjugated.
Regarding “ISIS 5339: sequence of 1082 (SEQ ID NO 134) with a fluorescein moiety conjugated to the 5′ end (GCCGAGGTCCATGTCGTACGC; DNA, 5' {Fluor}, backbone not given here)”, the EC50 amounted to 650 nM.
